From US20210254056A1, “IDENTIFICATION AND TARGETED MODULATION OF GENE SIGNALING NETWORKS” (CAMP4 THERAPEUTICS CORPORATION, priority 2017, published 2021)

System: hepatocytes
Test: RNA-seq of hepatocytes treated with Phase III failure compounds
Settings: hepatocytes
Procedure: RNA-seq was performed to determine the effects of the compounds on hepatocytes.
Significance was determined by the criteria of FPKM≥0.5, a log 2(fold-change)≥1, and a […].

**Q.** Which results are given for `CCC(CC)[C@H](NC(C)=O)[C@@H]1[C@H](O)[C@@H](C(=O)O)C[C@H]1NC(=N)N.O.O.O` [peramivir (trihydrate), peramivir]?
**A.** RNA-seq results: MCCC1 expression (gene MCCC1): −0.27; RNA-seq results: MCCC2 expression (gene MCCC2): −0.31; RNA-seq results: MCM6 expression (gene MCM6): −0.34; RNA-seq results: MEN1 expression (gene MEN1): 0.18; RNA-seq results: MET expression (gene MET): −0.27; RNA-seq results: MGAT2 expression (gene MGAT2): −0.09; RNA-seq results: MKS1 expression (gene MKS1): 0.23; RNA-seq results: MLH1 expression (gene MLH1): −0.18; RNA-seq results: MMAA expression (gene MMAA): −0.25; RNA-seq results: MMAB expression (gene MMAB): −0.09; RNA-seq results: MMADHC expression (gene MMADHC): −0.38; RNA-seq results: MOCS1 expression (gene MOCS1): 0.03; RNA-seq results: MOGAT2 expression (gene MOGAT2): 0.66; RNA-seq results: MOGS expression (gene MOGS): 0.33; RNA-seq results: MPZ expression (gene MPZ): 0.37; RNA-seq results: MRPL3 expression (gene MRPL3): −0.47; RNA-seq results: MTHFR expression (gene MTHFR): 0.37; RNA-seq results: MTM1 expression (gene MTM1): −0.29; RNA-seq results: MTO1 expression (gene MTO1): −0.13; RNA-seq results: MTR expression (gene MTR): 0.10; RNA-seq results: MTRR expression (gene MTRR): −0.43; RNA-seq results: MTTP expression (gene MTTP): −0.18; RNA-seq results: MVK expression (gene MVK): 0.07; RNA-seq results: MYH9 expression (gene MYH9): 0.20; RNA-seq results: MYO5B expression (gene MYO5B): −0.08; RNA-seq results: NAGS expression (gene NAGS): 0.31; RNA-seq results: NARS2 expression (gene NARS2): −0.42; RNA-seq results: NAT2 expression (gene NAT2): −0.40; RNA-seq results: NBAS expression (gene NBAS): −0.22; RNA-seq results: NCF2 expression (gene NCF2): −0.20; RNA-seq results: NEK1 expression (gene NEK1): −0.22; RNA-seq results: NEK8 expression (gene NEK8): 0.47; RNA-seq results: NEU1 expression (gene NEU1): −0.25; RNA-seq results: NFKB2 expression (gene NFKB2): 0.30; RNA-seq results: NFKBIA expression (gene NFKBIA): −0.19; RNA-seq results: NFU1 expression (gene NFU1): −0.52; RNA-seq results: NGLY1 expression (gene NGLY1): −0.40; RNA-seq results: NHP2 expression (gene NHP2): 0.65; RNA-seq results: NME1 expression (gene NME1): 0.00; RNA-seq results: NOD2 expression (gene NOD2): 0.30; RNA-seq results: NOP10 expression (gene NOP10): 0.03; RNA-seq results: NOTCH1 expression (gene NOTCH1): 0.23; RNA-seq results: NOTCH2 expression (gene NOTCH2): 0.01; RNA-seq results: NPC1 expression (gene NPC1): −0.09; RNA-seq results: NR1H4 expression (gene NR1H4): 0.00; RNA-seq results: NUBPL expression (gene NUBPL): −0.11; RNA-seq results: NUDT7 expression (gene NUDT7): −0.70; RNA-seq results: NUDT12 expression (gene NUDT12): −0.32; RNA-seq results: OAT expression (gene OAT): −0.40; RNA-seq results: OPA3 expression (gene OPA3): 0.14; RNA-seq results: OTC expression (gene OTC): −0.33; RNA-seq results: PAF1 expression (gene PAF1): −0.04; RNA-seq results: PAH expression (gene PAH): −0.22; RNA-seq results: PANK2 expression (gene PANK2): −0.22; RNA-seq results: PAOX expression (gene PAOX): −0.04; RNA-seq results: PC expression (gene PC): 0.27; RNA-seq results: PCCA expression (gene PCCA): −0.23; RNA-seq results: PCK2 expression (gene PCK2): 0.18; RNA-seq results: PCSK9 expression (gene PCSK9): 0.46; RNA-seq results: PCYT1A expression (gene PCYT1A): −0.07; RNA-seq results: PDGFRA expression (gene PDGFRA): −0.06; RNA-seq results: PDP1 expression (gene PDP1): −0.30; RNA-seq results: PEPD expression (gene PEPD): 0.03; RNA-seq results: PEX11A expression (gene PEX11A): −0.27; RNA-seq results: PEX12 expression (gene PEX12): −0.20; RNA-seq results: PEX14 expression (gene PEX14): 0.19; RNA-seq results: PFKM expression (gene PFKM): 0.45; RNA-seq results: PGM1 expression (gene PGM1): −0.24; RNA-seq results: PHGDH expression (gene PHGDH): 0.38; RNA-seq results: PHKA1 expression (gene PHKA1): −0.18; RNA-seq results: PHKA2 expression (gene PHKA2): 0.11; RNA-seq results: PHKB expression (gene PHKB): −0.39; RNA-seq results: PHYH expression (gene PHYH): −0.26; RNA-seq results: PIEZO1 expression (gene PIEZO1): 0.30; RNA-seq results: PIGA expression (gene PIGA): −0.37; RNA-seq results: PIGM expression (gene PIGM): −0.35; RNA-seq results: PKD1 expression (gene PKD1): 0.61; RNA-seq results: PKD2 expression (gene PKD2): 0.28; RNA-seq results: PKHD1 expression (gene PKHD1): 0.34; RNA-seq results: PKLR expression (gene PKLR): 0.35; RNA-seq results: PLA2G6 expression (gene PLA2G6): 0.59; RNA-seq results: PLEKHM1 expression (gene PLEKHM1): 0.10; RNA-seq results: PMVK expression (gene PMVK): 0.39; RNA-seq results: PNP (gene PNP): −0.40; RNA-seq results: PNPLA2 (gene PNPLA2): 0.02; RNA-seq results, POLD1 (gene POLD1): 0.24; RNA-seq results: POLD1 (gene POLD1): 0.30; RNA-seq results, POLG2 (gene POLG2): 0.19; RNA-seq results: POLG2 (gene POLG2): 0.22; RNA-seq results, POLG (gene POLG): 0.03; RNA-seq results: POLG (gene POLG): 0.10; RNA-seq results, POR (gene POR): 0.82; RNA-seq results: POR (gene POR): 0.16; RNA-seq results, PPAPDC2 (gene PPAPDC2): −0.01; RNA-seq results: PPAPDC2 (gene PPAPDC2): −0.14; RNA-seq results, PPARA (gene PPARA): 0.09; RNA-seq results: PPARA (gene PPARA): −0.14; RNA-seq results, PPARG (gene PPARG): 0.16; RNA-seq results: PPARG (gene PPARG): −0.47; RNA-seq results, PPM1K (gene PPM1K): 0.13; RNA-seq results: PPM1K (gene PPM1K): −0.24; RNA-seq results, PRKCD (gene PRKCD): 0.03; RNA-seq results: PRKCD (gene PRKCD): 0.06; RNA-seq results, PRODH (gene PRODH): 0.2; RNA-seq results: PRODH (gene PRODH): −0.14; RNA-seq results, PROS1 (gene PROS1): −0.19; RNA-seq results: PROS1 (gene PROS1): −0.20; RNA-seq results, PROZ (gene PROZ): 0.28; RNA-seq results: PROZ (gene PROZ): 0.10; RNA-seq results, PSAT1 (gene PSAT1): 0.26; RNA-seq results: PSAT1 (gene PSAT1): −0.18; RNA-seq results, PSMB8 (gene PSMB8): 0.02; RNA-seq results: PSMB8 (gene PSMB8): 0.08; RNA-seq results, PSPH (gene PSPH): 0.05; RNA-seq results: PSPH (gene PSPH): −0.12; RNA-seq results, PTCH1 (gene PTCH1): 0.28; RNA-seq results: PTCH1 (gene PTCH1): 0.20; RNA-seq results, PTRF (gene PTRF): −0.15; RNA-seq results: PTRF (gene PTRF): 0.25
